SMILES strings stand for the structures. Values joined by “and” are separate entries in the source; they are usually repeats but may differ in a detail not shown here. Equal entries are not always repeated.

Results on two molecules are retold here after patent US20120088803A1, “CONTROL AGENT FOR SOFT ROT AND CONTROL METHOD FOR THE SAME” (Ishihara Sangyo Kaisha, Ltd, priority 2009, published 2012).

Type in all cases: in vivo, Erwinia carotovora
Assay [1] has as its system Chinese cabbage soft rot. In words: Test for disease control of Chinese cabbage, field (Example 1 / Comparative Example 1). The arrangement: key to Disease incidence rate: % of examined plants that are diseased; key to Disease control value: (1 − severity treated/severity untreated) × 100; key to Disease severity: Σ(plants per class × index 0–4)/(plants examined × 4) × 100. To be noted: for Disease incidence rate / Disease severity / Disease control value: 63 days; for Disease control value: vs untreated plot; for Control effect on Chinese cabbage soft rot (in words): Table 1 test, moderate incidence conditions, fluazinam 250 g ai/10 a on soil, streptomycin 1/1000 foliage spraying. The protocol: Preparation was performed using 500 g/L of 3-chloro-N-(3-chloro-5-trifluoromethyl-2-pyridyl)-alpha,alpha,alpha-trifluoro-2,6-dinit ro-p-toluidine (fluazinam (common name), Frowncide SC (trade name), manufactured by Ishihara Sangyo Kaisha, Ltd.) such that the amount of the active ingredient was 250 g ai/10 a (500 mL product/10 a), and the amount of dilution water was 150 L/10 a.
The spray solution prepared in the above was sprayed onto cultivation soil in a field such that the spraying amount was 0.25 g/m^2 (150 L/10 a), and thereafter, a mulch-sheet for agricultural use was spreaded on the soil. After planting holes for settlement (diameter: about 5 cm) were made, seedlings of Chinese cabbage (cultivar: Musou) grown for 4 weeks in a cell tray (128 holes/nursery box) were planted such that 30 seedlings were planted in one test plot having an area of 6 m^2 with three replications.
Preparation was performed by diluting streptomycin (Mycin 20 wettable powder (trade name), manufactured by Hokko Chemical Industry Co., Ltd.) with water to 1/1000.
In a field covered with a mulch-sheet for agricultural use, seedlings of Chinese cabbage (cultivar: Musou) grown in a cell tray were planted, in the same manner as in Example 1, and foliage application was performed by spraying the spray solution of streptomycin prepared in (1) (spraying amount per application: 200 L/10 a) twice (39 days and 47 days after the planting of the seedlings).
The degree of disease incidence was examined for all the plants in each test plot 63 days after the start of the test, and the disease incidence rate, the disease severity, and the disease control value were calculated according to the following equations, and the test results are shown in Table 1.
(§1) (Disease incidence rate)=[(number of diseased plants)/(number of plants examined)]*100
(§2) (Disease severity)={S [(number of diseased plants in each class into which the plants are classified according to the degree of disease)*(disease index)]/[(number of plants examined)*4]}*100
(§3) (Disease control value)={1-[(Disease severity in treated plot)/(Disease severity in untreated plot)]}*100
(§4) Incidentally, the evaluation criteria for the disease index are as follows. • (Disease index) • 0: No lesion • 1: Lesions appear only in part of outer leaves (shipment can be made). • 2: Lesions appear in outer leaves and part of head leaves (the damaged part is removed and shipment as a small size plant can be made, rated Grade B). • 3: Lesions appear in most head leaves or more (shipment cannot be made). • 4: Lesions appear in the entire plant and the plant dies.

Assay [2] has as its system Chinese cabbage soft rot. Description: Test for disease control of Chinese cabbage, field (Example 2). The arrangement: key to Disease incidence rate: % of examined plants that are diseased; key to Disease control value: (1 − severity treated/severity untreated) × 100; key to Disease severity: Σ(diseased plants per class × index 0-4)/(plants × 4) × 100. Particulars: 250 g ai/10 a, 50 days.
From the text: as §1, §2, §3, §4
Preparation was performed using 500 g/L of • 3-chloro-N-(3-chloro-5-trifluoromethyl-2-pyridyl)-alpha,alpha,alpha-trifluoro-2,6-dinit ro-p-toluidine (fluazinam, Frowncide SC (trade name), manufactured by Ishihara Sangyo Kaisha, Ltd.) such that the amount of the active ingredient was 250 g ai/10 a (500 mL product/10 a), and the amount of dilution water was 150 L/10 a.
A mulch-sheet for agricultural use was spreaded on soil, and planting holes for settlement (diameter: about 5 cm) were made, and then, the spray solution prepared in the above was sprayed onto the planting holes such that the spraying amount was 0.25 g/m^2 (150 L/10 a), followed by air-drying. Then, seedlings of Chinese cabbage (cultivar: Yumebuki) grown for 4 weeks in a cell tray (128 holes/nursery box) were planted such that 34 to 40 seedlings were planted in one test plot having an area of 4.8 m^2 with three replications.
The degree of disease incidence was examined for all the plants in each test plot 50 days after the start of the test, and the disease severity and the disease control value were evaluated. Incidentally, the disease severity and the disease control value were obtained in the same manner as described above.

Assay [3] has as its system Chinese cabbage soft rot. Description: Test for disease control of Chinese cabbage with or without mulch-sheet, field (Example 5). The arrangement: key to Disease incidence rate: % of examined plants that are diseased; key to Disease control value: (1 − severity treated / severity untreated) × 100; key to Disease severity: Σ(plants per class × index 0-4)/(plants examined × 4) × 100. To be noted: 250 g ai/10 a; for Disease incidence rate / Disease severity / Disease control value: 150 L/10 a, Harebutai 65, 64 days; for Disease control value: vs untreated plot.
From the text: as §1, §2, §3, §4
Preparation was performed using 500 g/L of 3-chloro-N-(3-chloro-5-trifluoromethyl-2-pyridyl)-alpha,alpha,alpha-trifluoro-2,6-dinit ro-p-toluidine (fluazinam, Frowncide SC (trade name), manufactured by Ishihara Sangyo Kaisha, Ltd.) such that the amount of the active ingredient was 250 g ai/10 a (500 mL product/10 a), and the amount of dilution water was 150 L/10 a.
A mulch-sheet for agricultural use was spreaded on soil, and planting holes for settlement (diameter: about 5 cm) were made, and then, the spray solution prepared in the above was sprayed onto the planting holes such that the spraying amount was 0.25 g/m^2 (150 L/10 a), followed by air-drying. Then, seedlings of Chinese cabbage (cultivar: Harebutai 65) grown for 4 weeks in a cell tray (128 holes/nursery box) were planted such that 19 seedlings were planted in one test plot having an area of 2.4 m^2 with two replications.
The spray solution prepared in the above was sprayed onto the planting holes such that the spraying amount was 0.25 g/m^2 (150 L/10 a) without spreading a mulch-sheet for agricultural use, followed by air-drying. Then, seedlings of Chinese cabbage (cultivar: Harebutai 65) grown for 4 weeks in a cell tray (128 holes/nursery box) were planted such that 19 seedlings were planted in one test plot having an area of 2.4 m^2 with two replications.
The degree of disease incidence was examined for all the plants in each test plot 64 days after the start of the test, and the disease severity and the disease control value were evaluated. Incidentally, the disease severity and the disease control value were obtained in the same manner as described above.

Setting [4] is: 250 g ai/10 a, 150 L/10a onto cultivation soil, Musou, Average of replications.
Setting [5] is: 150 L/10 a onto planting holes, Yumebuki, Average of replications.
Setting [6] is: with mulch-sheet for agricultural use, Average.
Setting [7] is: with mulch-sheet for agricultural use, single replications I-II.
Where [8] appears, read: without mulch-sheet for agricultural use, Average.
The mark [9] stands for this setting: 1/1000 dilution, foliage application twice, Musou, Average of replications.

With `O=[N+]([O-])c1cc(C(F)(F)F)c(Cl)c([N+](=O)[O-])c1Nc1ncc(C(F)(F)F)cc1Cl` [Fluazinam, 3-chloro-N-(3-chloro-5-trifluoromethyl-2-pyridyl)-alpha,alpha,alpha-trifluoro-2,6-dinit ro-p-toluidine], the Disease incidence rate was 13.3 in assay [1] (setting [4]); 16.7 and 13.3 and 10.0 in assay [1] (250 g ai/10 a, 150 L/10a sprayed onto cultivation soil before mulch-sheet, cultivar Musou, single replications I-III); 45.4 in assay [2] (setting [5]); 55.0 and 37.5 and 43.6 in assay [2] (150 L/10 a sprayed onto planting holes of mulch-sheet, cultivar Yumebuki, single replications I-III); 31.2 in assay [3] (setting [6]); 23.5 and 38.9 in assay [3] (setting [7]). Also, the Disease incidence rate in assay [3] (setting [8]) came out at 28.9. Moreover, the Disease severity in assay [1] (setting [4]) is 6.4; in assay [1] (250 g ai/10 a, 150 L/10a onto cultivation soil, Musou, single replications I-III), 5.0 and 8.3 and 5.8; in assay [2] (setting [5]), 16.4; in assay [2] (150 L/10 a onto planting holes, Yumebuki, single replications I-III), 19.4 and 13.1 and 16.7; in assay [3] (setting [6]) it was 8.5; in assay [3] (setting [7]), 5.9 and 11.1. Also, the Disease severity in assay [3] (setting [8]) is 8.6. Moreover, the Disease control value in assay [1] (250 g ai/10 a, 150 L/10a onto cultivation soil, Musou) is listed as 81.7; in assay [2] (150 L/10 a onto planting holes, Yumebuki, vs untreated plot), 66.4; in assay [3] (with mulch-sheet for agricultural use), 73.1; in assay [3] (without mulch-sheet for agricultural use), 72.8. In addition, in assay [1], the “Control effect on Chinese cabbage soft rot (in words)” value was “a control effect on Chinese cabbage soft rot was observed”. Moreover, in assay [3] (Table 5 test, moderate incidence conditions), the “Control effect without mulch-sheet compared with treated plot covered with mulch-sheet (in words)” value is given as “substantially equal”.
Turning to `[H]/N=C(/N)N[C@H]1[C@H](O)[C@@H](O)[C@H](O[C@@H]2O[C@@H](C)[C@](O)(C=O)[C@H]2O[C@@H]2O[C@@H](CO)[C@H](O)[C@@H](O)[C@@H]2NC)[C@@H](N/C(N)=N\[H])[C@@H]1O` [Streptomycin, streptomycin], in assay [1] (setting [9]), the Disease incidence rate is listed as 60.0 and the Disease severity was 37.8. This molecule gave a Disease control value in assay [1] (1/1000 dilution, foliage application twice, Musou) of 0. For the same molecule, the “Control effect on Chinese cabbage soft rot (in words)” value in assay [1] is “not observed at all”.
